Results as given in US4382084A, “Antibiotics” (Beecham Group Limited, priority 1975, dated 1983).

Assays:
E. coli JT10 β-lactamase = assay: β-lactamase inhibition assay (Belgian Patent No. 827926); assay type: biochemical; conditions: enzyme of E. coli JT10
Procedure: (§1) When the compound prepared by the method of Example 1 was tested against certain enzymes by the β-lactamase inhibition assay described in Belgian Patent No. 827926 the following ^I 50 values were obtained: […]

E. coli JT4 β-lactamase = E. coli JT4 β-lactamase (Escherichia coli, UniProt P62593); assay: as above; assay type: biochemical; conditions: enzyme of E. coli JT4; read-out: Approximate I50 (converted)
Chain of E. coli JT4 β-lactamase (P62593 24-286 limits assumed): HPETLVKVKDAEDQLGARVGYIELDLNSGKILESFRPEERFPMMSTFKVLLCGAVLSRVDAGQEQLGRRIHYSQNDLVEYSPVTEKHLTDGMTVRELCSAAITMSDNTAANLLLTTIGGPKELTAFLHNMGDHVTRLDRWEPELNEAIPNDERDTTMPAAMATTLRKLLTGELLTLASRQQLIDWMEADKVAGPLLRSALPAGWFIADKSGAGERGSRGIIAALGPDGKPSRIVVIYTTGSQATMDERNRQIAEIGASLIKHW
Procedure: as §1

[1] = target: Klebsiella aerogenes AE70 β-lactamase; assay: as above; assay type: biochemical; conditions: enzyme of Klebsiella aerogenes AE70
Procedure: as §1

[2] = target: Staphylococcus aureus (Russell) β-lactamase (Staphylococcus aureus, UniProt P00807); assay: as above; assay type: biochemical; conditions: enzyme of Staphylococcus aureus (Russell); read-out: Approximate I50 (converted)
Chain of Staphylococcus aureus (Russell) β-lactamase (P00807 25-281): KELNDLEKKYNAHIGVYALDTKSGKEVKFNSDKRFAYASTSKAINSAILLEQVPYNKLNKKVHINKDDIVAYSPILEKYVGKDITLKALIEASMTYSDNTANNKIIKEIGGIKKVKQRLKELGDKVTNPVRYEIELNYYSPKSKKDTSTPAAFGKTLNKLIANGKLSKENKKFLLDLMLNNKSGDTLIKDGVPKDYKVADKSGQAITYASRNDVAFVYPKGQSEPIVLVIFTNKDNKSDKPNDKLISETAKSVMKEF
Procedure: as §1

Acute toxicity in mice = conditions: mouse, in vivo
[3] = tested on: Staphylococcus aureus Russell; assay: MIC test of synergy with ampicillin; assay type: cell-based; conditions: ampicillin administered separately, read-out: MIC of ampicillin alone (not inhibited by)
Procedure: b. […] The following test results were obtained using a strain of Staphylococcus aureus Russell which is neither inhibited by 250 μg/ml of ampicillin nor inhibited by 5 μg/ml of synergist aministered separately.

O=C(OCc1ccccc1)[C@H]1/C(=C/CN(Cc2ccccc2)Cc2ccccc2)O[C@@H]2CC(=O)N21 [Example 1]
Approximate I50 (E. coli JT10 β-lactamase): 0.24 mg/mL | IC50 (E. coli JT4 β-lactamase): 42.7 µM | Approximate I50 [1]: 0.40 mg/mL | IC50 [2]: 128 µM

C=CCN(CC=C)C/C=C1\O[C@@H]2CC(=O)N2[C@H]1C(=O)OCc1ccccc1 [Example 8, Benzyl diallylaminodeoxyclavulanate]
LD50 (Acute toxicity in mice; oral route): > 500 mg/kg | LD50 (Acute toxicity in mice; sc, sub-cutaneous route): > 500 mg/kg

CCCN(C/C=C1\O[C@@H]2CC(=O)N2[C@H]1C(=O)O)CCC [Example 12, 9-(N,N-dipropylamino)-9-deoxyclavulanio acid]
LD50 (Acute toxicity in mice; oral route): > 500 mg/kg | LD50 (Acute toxicity in mice; sc, sub-cutaneous route): > 500 mg/kg

CC1(C)S[C@@H]2[C@H](NC(=O)[C@H](N)c3ccccc3)C(=O)N2[C@H]1C(=O)O [ampicillin]
MIC [3]: > 250 µg/mL
